Patent publication US20260184707A1, “PHARMACEUTICAL COMPOUNDS FOR THE TREATMENT OF COMPLEMENT MEDIATED DISORDERS” (ALEXION PHARMACEUTICALS, INC., priority 2022, published 2026)

biological target: T1, Human complement C1s enzyme (Homo sapiens, UniProt P09871); test: Human C1s enzyme assay; assay type: biochemical; conditions: human complement C1s enzyme 1.16 nM, substrate Z-L-Lys-SBzl, A405; read-out: IC50 (Stars)
T1 construct: purified from human serum, Complement Technology, Inc; purchased Complement Technology, Inc; host or cells: human serum (plasma-derived native protein)
T1 sequence (P09871 438-688 limits assumed): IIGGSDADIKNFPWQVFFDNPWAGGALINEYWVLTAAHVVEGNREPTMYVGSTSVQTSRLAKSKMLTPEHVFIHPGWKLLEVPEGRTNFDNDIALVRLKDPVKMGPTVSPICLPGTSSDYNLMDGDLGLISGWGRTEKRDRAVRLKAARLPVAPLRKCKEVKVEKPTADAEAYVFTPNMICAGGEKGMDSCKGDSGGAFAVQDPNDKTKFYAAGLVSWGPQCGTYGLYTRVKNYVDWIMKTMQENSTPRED
T1 sequence (P09871 16-437 partner limits assumed): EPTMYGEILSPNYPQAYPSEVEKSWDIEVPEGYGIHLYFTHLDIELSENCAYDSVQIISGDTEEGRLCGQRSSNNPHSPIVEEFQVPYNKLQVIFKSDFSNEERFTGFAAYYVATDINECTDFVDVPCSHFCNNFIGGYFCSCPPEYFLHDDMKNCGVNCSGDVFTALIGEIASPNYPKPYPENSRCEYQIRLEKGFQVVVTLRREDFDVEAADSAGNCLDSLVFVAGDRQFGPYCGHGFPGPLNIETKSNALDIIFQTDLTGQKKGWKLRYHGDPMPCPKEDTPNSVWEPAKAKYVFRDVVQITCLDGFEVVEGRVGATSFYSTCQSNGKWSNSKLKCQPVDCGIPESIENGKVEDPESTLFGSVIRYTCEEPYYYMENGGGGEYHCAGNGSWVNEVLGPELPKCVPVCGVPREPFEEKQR
Outline: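 Serum-purified human C1s (1.16 nM final) preincubated 5 min at room temperature with compound in 50 mM Tris, 1 M NaCl, pH 7.5. Z-L-Lys-SBzl and DTNB added at 100 μM each; A405 recorded every 30 s. IC50 from nonlinear regression of reaction rates versus compound concentration.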

Row | IC50 | Compound
1 | < 100 nM | C[C@@H](Nc1ncc(N2CCN(C)CC2)n(CC(=O)NCc2cc3cnccc3[nH]2)c1=O)c1ccc2oc3ccccc3c2c1 [Compound 428, (R)-N-((1H-pyrrolo[3,2-c]pyridin-2-yl)methyl)-2-(3-((1-(dibenzo[b,d]furan-2-yl)ethyl)-amino)-6-(4-methylpiperazin-1-yl)-2-oxopyrazin-1(2H)-yl)-acetamide]
2 | < 100 nM | O=C(Cn1c(-c2ccc(F)c(F)c2)ncc(NC(=O)c2ccc(-c3ccccc3)cc2)c1=O)NCc1cc2cnccc2[nH]1 [Compound 226, N-(1-(2-(((1H-pyrrolo[3,2-c]pyridin-2-yl)methyl)amino)-2-oxoethyl)-2-(3,4-difluorophen-yl)-6-oxo-1,6-dihydropyrimi-din-5-yl)-[1,1′-biphenyl]-4-carboxamide]
3 | < 100 nM | COc1cc(C(=O)Nc2cnc(-c3ccccc3)n(CC(=O)NCc3cc4cnccc4[nH]3)c2=O)ccc1-c1ccccc1 [Compound 115, N-(1-(2-(((1H-pyrrolo[3,2-c]pyridin-2-yl)methyl)amino)-2-oxoethyl)-6-oxo-2-phenyl-1,6-dihydropyrimidin-5-yl)-2-methoxy-[1,1′-biphenyl]-4-carboxamide]
4 | > 1000 nM | C[C@@H](Nc1cnc(N2CCC(F)(F)CC2)n(CC(=O)NCc2cc3cnccc3[nH]2)c1=O)c1ccc2oc3ccccc3c2c1 [Compound 379, (R)-N-((1H-pyrrolo[3,2-c]pyridin-2-yl)methyl)-2-(5-((1-(dibenzo[b,d]furan-2-yl)ethyl)-amino)-2-(4,4-difluoropiperi-din-1-yl)-6-oxopyrimidin-1(6H)-yl)acetamide]
5 | < 100 nM | O=C(Cn1c(-c2ccccc2)ncc(NC(=O)c2ccc(-n3cccc3)cc2)c1=O)NCc1cc2cnccc2[nH]1 [Compound 59, N-(1-(2-(((1H-pyrrolo[3,2-c]pyridin-2-yl)methyl)amino)-2-oxoethyl)-6-oxo-2-phenyl-1,6-dihydropyrimidin-5-yl)-4-(1H-pyrrol-1-yl)benzamide]
6 | < 100 nM | C[C@@H](Nc1cnc(-c2cccc(Cl)c2)n(CC(=O)NCc2cc3cnccc3[nH]2)c1=O)c1ccc2oc3ccccc3c2c1 [Compound 293, (R)-N-((1H-pyrrolo[3,2-c]pyr-idin-2-yl)methyl)-2-(2-(3-chlorophenyl)-5-((1-(dibenzo [b,d]furan-2-yl)ethyl)amino)-6-oxopyrimidin-1(6H)-yl)acet-amide]
7 | < 100 nM | CS(=N)(=O)c1ccc(-c2ncc(NCCCc3ccccc3)c(=O)n2CC(=O)NCc2cc3cnccc3[nH]2)cc1 (stereo not shown) [Compound 200, N-((1H-pyrrolo[3,2-c]pyridine-2-yl)methyl)-2-(2-(4-(S-methylsulfonimidoyl)phenyl)-6-oxo-5-((3-phenylpropyl)amino)pyrimidin-1(6H)-yl)acetamide]
8 | < 100 nM | O=C(Cn1c(-c2ccccc2)ncc(NC(=O)c2ccc(-c3cccs3)cc2)c1=O)NCc1cc2cnccc2[nH]1 [Compound 56, N-(1-(2-(((1H-pyrrolo[3,2-c]pyridin-2-yl)methyl)amino)-2-oxoethyl)-6-oxo-2-phenyl-1,6-dihydropyrimidin-5-yl)-4-(thiophen-2-yl)benzamide]
9 | < 100 nM | C[C@@H](Nc1cnc(C2=CCCCC2)n(CC(=O)NCc2cc3cnccc3[nH]2)c1=O)c1ccc2oc3ccccc3c2c1 [Compound 325, (R)-N-((1H-pyrrolo[3,2-c]pyr-idin-2-yl)methyl)-2-(2-(cyclo-hex-1-en-1-yl)-5-((1-(dibenzo [b,d]furan-2-yl)ethyl)amino)-6-oxopyrimidin-1(6H)-yl)acet-amide]
10 | > 1000 nM | O=C(Cn1c(-c2ccccc2)ncc(NC(=O)c2ccc(-c3ccccc3)s2)c1=O)NCc1ccc(Cl)s1 [Compound 278, N-(1-(2-(((5-chlorothiophen-2-yl)methyl)amino)-2-oxoethyl)-6-oxo-2-phenyl-1,6-dihydro-pyrimidin-5-yl)-5-phenylthio-phene-2-carboxamide]
11 | < 100 nM | O=C(Cn1c(-c2ccccc2)ncc(NC(=O)CCCc2ccc(Oc3ccccc3)cc2)c1=O)NCc1cc2cnccc2[nH]1 [Compound 18, N-(1-(2-(((1H-pyrrolo[3,2-c]pyridin-2-yl)methyl)amino)-2-oxoethyl)-6-oxo-2-phenyl-1,6-dihydropyrimidin-5-yl)-4-(4-phenoxyphenyl)butanamide]

The next lines start with the compound.

Row | Compound | IC50
12 | C[C@@H](Nc1cnc(-c2ccc(=O)n(C)c2)n(CC(=O)NCc2cc3cnccc3[nH]2)c1=O)c1ccc2oc3ccccc3c2c1 [Compound 290, (R)-N-((1H-pyrrolo[3,2-c]pyr-idin-2-yl)methyl)-2-(5-((1-(dibenzo[b,d]furan-2-yl)ethyl)-amino)-2-(1-methyl-6-oxo-1,6-dihydropyridin-3-yl)-6-oxopyr-imidin-1(6H)-yl)acetamide] | 100 to 1000 nM
13 | C[C@H](Nc1cnc(N2CCCCC2)n(CC(=O)NCc2cc3cnccc3[nH]2)c1=O)c1ccc2oc3ccccc3c2c1 [Compound 284, (S)-N-((1H-pyrrolo[3,2-c]pyr-idin-2-yl)methyl)-2-(5-((1-(dibenzo[b,d]furan-2-yl)ethyl)-amino)-6-oxo-2-(piperidin-1-yl)pyrimidin-1(6H)-yl)acet-amide] | < 100 nM
14 | CC1CCCN(c2ncc(N[C@H](C)c3ccc4oc5ccccc5c4c3)c(=O)n2CC(=O)NCc2cc3cnccc3[nH]2)C1 (stereo partly drawn) [Compound 381, N-((1H-pyrrolo[3,2-c]pyridin-2-yl)methyl)-2-(5-(((R)-1-(dibenzo[b,d]furan-2-yl)ethyl)-amino)-2-(3-methylpiperidin-1-yl)-6-oxopyrimidin-1(6H)-yl)acetamide] | > 1000 nM
15 | C[C@H](Nc1ncc(-c2ccccc2F)n(CC(=O)NCc2cc3cnccc3[nH]2)c1=O)c1ccc2oc3ccccc3c2c1 [Compound 314, (S)—N-((1H-pyrrolo[3,2-c]pyridine-2-yl)methyl)-2-(3-((1-(dibenzo[b,d]furan-2-yl)ethyl)amino)-6-(2-fluorophenyl)-2-oxopyrazin-1(2H)-yl)acetamide] | < 100 nM
16 | C[C@@H](Nc1cnc(-c2ccccc2)n(CC(=O)NCc2cc3cnccc3[nH]2)c1=O)c1coc(-c2ccccc2)n1 [Compound 347, (R)-N-((1H-pyrrolo[3,2-c]pyridin-2-yl)methyl)-2-(6-oxo-2-phenyl-5-((1-(2-phenyloxa-zol-4-yl)ethyl)amino)pyrimi-din-1(6H)-yl)acetamide] | < 100 nM
17 | O=C(Cn1c(-c2cccs2)ncc(NCc2ccc3oc4ccccc4c3c2)c1=O)NCc1cc2cnccc2[nH]1 [Compound 251, N-((1H-pyrrolo[3,2-c]pyridin-2-yl)methyl)-2-(5-((dibenzo [b,d]furan-2-ylmethyl)amino)-6-oxo-2-(thiophen-2-yl)pyrimi-din-1(6H)-yl)acetamide] | < 100 nM
18 | O=C(Cn1c(-c2ccccc2)ncc(NCCCc2ccccc2)c1=O)NCc1cc2cnccc2[nH]1 [Compound 1, N-((1H-pyrrolo[3,2-c]pyridin-2-yl)methyl)-2-(6-oxo-2-phen-yl-5-((3-phenylpropyl)amino)-pyrimidin-1(6H)-yl)acetamide] | < 100 nM
19 | O=C(Cn1c(N2CCC(F)(F)C2)ncc(NCc2ccc3oc4ccccc4c3c2)c1=O)NCc1c[nH]c2ccncc12 [Compound 271, N-((1H-pyrrolo[3,2-c]pyridin-3-yl)methyl)-2-(5-((dibenzo [b,d]furan-2-ylmethyl)amino)-2-(3,3-difluoropyrrolidin-1-yl)-6-oxopyrimidin-1(6H)-yl)acet-amide] | < 100 nM
